The subject of one assay is choroidal NV. Put plainly: choroidal NV in a mouse model, topical administration. The format is in vivo. To be noted: previous findings.
Assay [1] deals with BRMEC (Bovine Retinal Microvascular Endothelial Cell). Put plainly: VEGF-induced BRMEC proliferation, modified MTT assay. The format is cell-based. Here is the method:
VEGF-induced BRMEC proliferation was measured using a modified MTT assay, BRMEC were plated at 3×10^3 onto a fibronectin/hyaluronic acid matrix in 96-well plates (Coming). Growth medium was added for two days, followed by serum free medium (SFM) overnight, then by test medium containing 0 or 25 ng/ml VEGF in 100 μl of SFM. After 24 hours at 37° C./5%CO2, 25 μl of MTT (3-(4,5-dimethylthiazol-2-yl)-2,5-diphenyl tetrazolium bromide) was added to each well and incubated for 4 hours. 100 μl of lysis buffer (20%SDS in 50:50 DMF:H2O+2.0% acetic acid and 0.05%HCl) was then added to each well, and the plates were incubated overnight at 37° C. and read (SPECTRAmax 190, Molecular Devices; Sunnyvale, Calif.) at 570 nm. For experiments utilizing AL06295, 25 ng/ml VEGF was combined with the compound at 0.1, 0.3, 1.0 or 3 μM.
(In general: Tetrazolium dyes change colour on reduction, which living cells bring about.)

For assay [2] the test system is unchanged. In words: VEGF-induced BRMEC capillary tube formation. In kind it is cell-based. Here is the method: A mixture of 8 vol of Vitrogen 100 (Cohesion; Palo Alto, Calif.), 1 vol. of 0.2N NaOH, and 1 vol. of 10× RPMI-1640 medium containing 5 μg/ml fibronectin and 5 μg/ml laminin was prepared and 400 μl was added to each well of a 24-well plate. After incubating for 3 hrs at 37° C. to solidify the gel, 10^4 BRMEC were added to each well and incubated in growth medium for 3 days. Then the medium was carefully aspirated and 200 μl of the gel solution was layered on top of the cells and incubated at 37° C. for 1 hr. Following addition of growth medium for 24 hrs, 2 ml of test medium containing serum-free (SF) medium plus VEGF or SF medium plus VEGF and AL06295A were added to each well. The gels were assessed 24 hrs later.
For quantitative analysis, six fields per treatment group were chosen from areas containing tubes; seven wells were used for each treatment. The lengths of the tubes were measured in digitized images, and the data are expressed in FIG. 2 as the total length per field of view in μm.

The next assay concerns the target COX-1 (Homo sapiens, UniProt P23219). To be noted: known; cited from earlier work.
Another assay concerns the target T1, COX-2 (Homo sapiens, UniProt P35354).
T1 sequence (P35354 18-604): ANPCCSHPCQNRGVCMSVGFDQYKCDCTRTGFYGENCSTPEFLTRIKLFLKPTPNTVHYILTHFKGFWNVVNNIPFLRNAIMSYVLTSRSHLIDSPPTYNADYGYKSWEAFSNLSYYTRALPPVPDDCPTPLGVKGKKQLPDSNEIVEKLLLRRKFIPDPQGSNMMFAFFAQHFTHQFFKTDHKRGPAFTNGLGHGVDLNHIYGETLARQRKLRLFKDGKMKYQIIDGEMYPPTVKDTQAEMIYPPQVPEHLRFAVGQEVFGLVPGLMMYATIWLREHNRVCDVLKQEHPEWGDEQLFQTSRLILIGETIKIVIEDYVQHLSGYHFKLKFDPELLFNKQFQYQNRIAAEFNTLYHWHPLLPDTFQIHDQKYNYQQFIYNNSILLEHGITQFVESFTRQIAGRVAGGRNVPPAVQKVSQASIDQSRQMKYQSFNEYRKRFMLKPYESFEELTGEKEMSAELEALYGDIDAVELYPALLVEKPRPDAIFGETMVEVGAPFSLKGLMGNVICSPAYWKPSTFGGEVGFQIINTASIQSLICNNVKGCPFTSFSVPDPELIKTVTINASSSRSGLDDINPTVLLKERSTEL
To be noted: known; cited from earlier work.

[3] abbreviates: dose-response fashion, bovine retinal microvascular endothelial cell assay.

COX-1, sequence (P23219 24-599): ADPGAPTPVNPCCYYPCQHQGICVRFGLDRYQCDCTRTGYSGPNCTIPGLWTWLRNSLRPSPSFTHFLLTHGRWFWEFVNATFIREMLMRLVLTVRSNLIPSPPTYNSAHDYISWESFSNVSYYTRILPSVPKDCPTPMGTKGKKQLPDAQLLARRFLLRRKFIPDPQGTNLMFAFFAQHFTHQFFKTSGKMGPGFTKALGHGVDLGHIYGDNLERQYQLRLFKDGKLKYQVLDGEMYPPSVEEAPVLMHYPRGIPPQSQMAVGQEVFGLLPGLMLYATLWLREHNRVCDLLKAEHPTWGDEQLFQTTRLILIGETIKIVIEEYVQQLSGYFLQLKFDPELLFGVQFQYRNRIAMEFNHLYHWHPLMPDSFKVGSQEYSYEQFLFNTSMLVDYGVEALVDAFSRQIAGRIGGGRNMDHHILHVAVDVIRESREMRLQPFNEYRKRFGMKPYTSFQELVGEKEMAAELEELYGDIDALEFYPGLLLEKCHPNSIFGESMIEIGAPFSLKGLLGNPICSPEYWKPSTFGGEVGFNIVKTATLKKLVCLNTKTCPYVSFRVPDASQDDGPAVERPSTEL

As to `NC(=O)Cc1cccc(C(=O)c2ccccc2)c1N` [nepafenac], in the assay with choroidal NV, the “choroidal NV” value is “inhibited”.
Turning to “2-amino-3-benzoylbenzene acetic acid [amfenac]”, the “VEGF induced BRMEC proliferation” value in assay [1] (1 and 3 μM doses, 25 ng/ml VEGF, 24 hours, FIG. 1) was “significantly reduce”. The VEGF-induced cell proliferation result in assay [1] (setting [3]) was “inhibit”. In addition, the “VEGF induced capillary tube formation in BRMECs (total tube length per field of view)” value in assay [2] (all doses, SF medium plus VEGF, assessed 24 hrs later, FIG. 2) was “significantly and potently inhibit”. The “VEGF-induced capillary tube formation” value in assay [2] (setting [3]) is listed as “inhibit”. In addition, the “activity of COX-1 enzyme” value at COX-1 is “potently inhibit”. Also, at COX-2, the “activity of COX-2 enzyme” value is on record as “potently inhibit”.
